Source: US12201638B2, “Pharmaceutical compositions comprising (2S)-n-{(1S)-1-cyano-2-[4-(3-methyl-2-oxo-2,3-dihydro-1,3-benzoxazol-5-yl)phenyl]ethyl}-1,4-oxazepane-2-carboxamide” (ASTRAZENECA AB, priority 2018, dated 2025)

Assay: Excipient compatibility: accelerated stability of Compound A tablets (degradation by chromatography)
Type: physicochemical
Settings: stored at 50/75 for 45 days
Procedure: Excipient compatibility experiments were designed as linear D-optimal designs with qualitative factors of two or more levels. The formulations used in these experiments can be directly compressed into tablets. For dry processing, three factors were evaluated, namely binary filler combination, choice of disintegrant and choice of lubricant. In the experimental design shown below (see Table 3) the effect of an HPMC-based film coat as well as the addition of colloidal silicon dioxide was evaluated using repeat corners.
Pure drug substance was included as a reference in all conditions.
This is shown in FIG. 2, where tablets stored at 50/75 for 45 days are compared with neat drug substance stored in identical conditions as well as a freshly prepared standard solution from the same drug substance batch. The chromatograms are stacked in order of degradation (and slightly shifted for clarity).
However, the general trends from the other conditions could still be seen. […] Based on this, 70/XX data was omitted from the shelf life prediction model.
Five different peaks were monitored at five different conditions. However, as discussed above, the 70/XX condition was excluded based on a probable conversion to Form B. Overall, Compound A in tablets containing glyceryl behenate appears to degrade to a slightly lesser degree than magnesium stearate.

Structure (SMILES): Cn1c(=O)oc2ccc(-c3ccc(C[C@@H](C#N)NC(=O)[C@@H]4CNCCCO4)cc3)cc21 [Compound A, (2S)-N-{(1S)-1-cyano-2-[4-(3-methyl-2-oxo-2,3-dihydro-1,3-benzoxazol-5-yl)phenyl]ethyl}-1,4-oxazepane-2-carboxamide]
- Degradation (overlaid chromatograms, FIG. 2): almost no difference
